US11382328B2, “Rapid drug discovery methods for pathogen inactivation” (priority 2019, dated 2022)

System: E. coli strain W3110
Test: Synergy assays: Biolog chemical sensitivity panels with Group IB metal, coefficient of drug interaction (CDI) from relative growth
Assay type: cell-based
Settings: for CDI (coefficient of drug interaction), gold + biocide: Gold (μM); for CDI (coefficient of drug interaction), copper mixed with biocide: Copper (mM) section

SMILES: O=C(O)/C=C/c1ccccc1 [Cimamic acid]
- CDI (coefficient of drug interaction) (Copper (mM), 1st of 3 copper concentrations (head line not shown), biocide concentration 1 of 4, E. coli): 0.85
- CDI (coefficient of drug interaction) (Copper (mM), 1st of 3 copper concentrations (head line not shown), biocide concentration 2 of 4, E. coli): 0.74
- CDI (coefficient of drug interaction) (Copper (mM), 1st of 3 copper concentrations (head line not shown), biocide concentration 3 of 4, E. coli): 0.87
- CDI (coefficient of drug interaction) (Copper (mM), 1st of 3 copper concentrations (head line not shown), biocide concentration 4 of 4, E. coli): Tox
- CDI (coefficient of drug interaction) (Copper (mM), 2nd of 3 copper concentrations (head line not shown), biocide concentration 1 of 4, E. coli): 0.70
- CDI (coefficient of drug interaction) (Copper (mM), 2nd of 3 copper concentrations (head line not shown), biocide concentration 2 of 4, E. coli): 0.79
- CDI (coefficient of drug interaction) (Copper (mM), 2nd of 3 copper concentrations (head line not shown), biocide concentration 3 of 4, E. coli): 1.11
- CDI (coefficient of drug interaction) (Copper (mM), 2nd of 3 copper concentrations (head line not shown), biocide concentration 4 of 4, E. coli): Tox
- CDI (coefficient of drug interaction) (Copper (mM), 3rd of 3 copper concentrations (head line not shown), biocide concentration 1 of 4, E. coli): 0.53
- CDI (coefficient of drug interaction) (Copper (mM), 3rd of 3 copper concentrations (head line not shown), biocide concentration 2 of 4, E. coli): 0.54
- CDI (coefficient of drug interaction) (Copper (mM), 3rd of 3 copper concentrations (head line not shown), biocide concentration 3 of 4, E. coli): 1.11
- CDI (coefficient of drug interaction) (Copper (mM), 3rd of 3 copper concentrations (head line not shown), biocide concentration 4 of 4, E. coli): Tox
- CDI (coefficient of drug interaction), gold + biocide (first of 3 gold concentrations, biocide concentration 2 of 4): 1.09
- CDI (coefficient of drug interaction), gold + biocide (first of 3 gold concentrations, biocide concentration 3 of 4): 1.19
- CDI (coefficient of drug interaction), gold + biocide (first of 3 gold concentrations, biocide concentration 4 of 4): Tox
- CDI (coefficient of drug interaction), gold + biocide (second of 3 gold concentrations, biocide concentration 1 of 4): 0.99
- CDI (coefficient of drug interaction), gold + biocide (second of 3 gold concentrations, biocide concentration 2 of 4): 1.11
- CDI (coefficient of drug interaction), gold + biocide (second of 3 gold concentrations, biocide concentration 3 of 4): 0.95
- CDI (coefficient of drug interaction), gold + biocide (second of 3 gold concentrations, biocide concentration 4 of 4): Tox
- CDI (coefficient of drug interaction), gold + biocide (third of 3 gold concentrations, biocide concentration 1 of 4): 0.98
- CDI (coefficient of drug interaction), gold + biocide (third of 3 gold concentrations, biocide concentration 2 of 4): 0.85
- CDI (coefficient of drug interaction), gold + biocide (third of 3 gold concentrations, biocide concentration 3 of 4): 0.96
- CDI (coefficient of drug interaction), gold + biocide (third of 3 gold concentrations, biocide concentration 4 of 4): Tox
- CDI (Silver 0.5 μM, biocide concentration 1 of 4): 0.90
- CDI (Silver 0.5 μM, biocide concentration 2 of 4): 1.06
- CDI (Silver 0.5 μM, biocide concentration 3 of 4): 0.73
- CDI (Silver 0.5 μM, biocide concentration 4 of 4): Tox
- CDI (Silver 1.0 μM, biocide concentration 1 of 4): 0.88
- CDI (Silver 1.0 μM, biocide concentration 2 of 4): 0.93
- CDI (Silver 1.0 μM, biocide concentration 3 of 4): 0.99
- CDI (Silver 1.0 μM, biocide concentration 4 of 4): Tox
- CDI (Silver 5.0 μM, biocide concentration 1 of 4): 0.88
- CDI (Silver 5.0 μM, biocide concentration 2 of 4): 0.92
- CDI (Silver 5.0 μM, biocide concentration 4 of 4): Tox

SMILES: CCCCCCCCCCCC[N+](C)(C)C.[Br-] [Dodecyltrimethyl NH4^+ Br^−]
- CDI (coefficient of drug interaction), copper mixed with biocide (1st of 3 copper concentrations (value not shown), 1st of four biocide concentrations): 1.20
- CDI (coefficient of drug interaction), copper mixed with biocide (1st of 3 copper concentrations (value not shown), 3rd of four biocide concentrations): 1.51
- CDI (coefficient of drug interaction), copper mixed with biocide (1st of 3 copper concentrations (value not shown), 4th of four biocide concentrations): Tox
- CDI (coefficient of drug interaction), copper mixed with biocide (2nd of 3 copper concentrations (value not shown), 1st of four biocide concentrations): 1.02
- CDI (coefficient of drug interaction), copper mixed with biocide (2nd of 3 copper concentrations (value not shown), 2nd of four biocide concentrations): 1.04
- CDI (coefficient of drug interaction), copper mixed with biocide (2nd of 3 copper concentrations (value not shown), 3rd of four biocide concentrations): Tox
- CDI (coefficient of drug interaction), copper mixed with biocide (2nd of 3 copper concentrations (value not shown), 4th of four biocide concentrations): Tox
- CDI (coefficient of drug interaction), copper mixed with biocide (3rd of 3 copper concentrations (value not shown), 1st of four biocide concentrations): 0.77
- CDI (coefficient of drug interaction), copper mixed with biocide (3rd of 3 copper concentrations (value not shown), 2nd of four biocide concentrations): 0.73
- CDI (coefficient of drug interaction), copper mixed with biocide (3rd of 3 copper concentrations (value not shown), 3rd of four biocide concentrations): 1.63
- CDI (coefficient of drug interaction), copper mixed with biocide (3rd of 3 copper concentrations (value not shown), 4th of four biocide concentrations): Tox
- CDI (coefficient of drug interaction) (Gold section of Table 5, first of three gold concentrations (μM, value not given), biocide concentration 1 of 4): 0.96
- CDI (coefficient of drug interaction) (Gold section of Table 5, first of three gold concentrations (μM, value not given), biocide concentration 2 of 4): 1.00
- CDI (coefficient of drug interaction) (Gold section of Table 5, first of three gold concentrations (μM, value not given), biocide concentration 3 of 4): 0.95
- CDI (coefficient of drug interaction) (Gold section of Table 5, first of three gold concentrations (μM, value not given), biocide concentration 4 of 4): Tox
- CDI (coefficient of drug interaction) (Gold section of Table 5, second of three gold concentrations (μM, value not given), biocide concentration 1 of 4): 0.96
- CDI (coefficient of drug interaction) (Gold section of Table 5, second of three gold concentrations (μM, value not given), biocide concentration 2 of 4): 0.94
- CDI (coefficient of drug interaction) (Gold section of Table 5, second of three gold concentrations (μM, value not given), biocide concentration 3 of 4): 1.11
- CDI (coefficient of drug interaction) (Gold section of Table 5, second of three gold concentrations (μM, value not given), biocide concentration 4 of 4): Tox
- CDI (coefficient of drug interaction) (Gold section of Table 5, third of three gold concentrations (μM, value not given), biocide concentration 1 of 4): 1.02
- CDI (coefficient of drug interaction) (Gold section of Table 5, third of three gold concentrations (μM, value not given), biocide concentration 2 of 4): 1.14
- CDI (coefficient of drug interaction) (Gold section of Table 5, third of three gold concentrations (μM, value not given), biocide concentration 3 of 4): 1.05
- CDI (coefficient of drug interaction) (Gold section of Table 5, third of three gold concentrations (μM, value not given), biocide concentration 4 of 4): Tox
- CDI (coefficient of drug interaction), silver + biocide (Silver 0.5 μM, 1st of four biocide concentrations, E. coli): 0.63
- CDI (coefficient of drug interaction), silver + biocide (Silver 0.5 μM, 2nd of four biocide concentrations, E. coli): 0.91
- CDI (coefficient of drug interaction), silver + biocide (Silver 0.5 μM, 3rd of four biocide concentrations, E. coli): Tox
- CDI (coefficient of drug interaction), silver + biocide (Silver 0.5 μM, 4th of four biocide concentrations, E. coli): Tox
- CDI (coefficient of drug interaction), silver + biocide (Silver 1.0 μM, 1st of four biocide concentrations, E. coli): 1.00
- CDI (coefficient of drug interaction), silver + biocide (Silver 1.0 μM, 2nd of four biocide concentrations, E. coli): 1.04
- CDI (coefficient of drug interaction), silver + biocide (Silver 1.0 μM, 3rd of four biocide concentrations, E. coli): Tox
- CDI (coefficient of drug interaction), silver + biocide (Silver 1.0 μM, 4th of four biocide concentrations, E. coli): Tox
- CDI (coefficient of drug interaction), silver + biocide (Silver 5.0 μM, 1st of four biocide concentrations, E. coli): 0.59
- CDI (coefficient of drug interaction), silver + biocide (Silver 5.0 μM, 2nd of four biocide concentrations, E. coli): 0.47
- CDI (coefficient of drug interaction), silver + biocide (Silver 5.0 μM, 3rd of four biocide concentrations, E. coli): Tox
- CDI (coefficient of drug interaction), silver + biocide (Silver 5.0 μM, 4th of four biocide concentrations, E. coli): Tox
